The results in this text go back to patent publication US20180244653A1, “SELECTIVE ALPHA-7 NICOTINIC RECEPTOR AGONISTS AND METHODS FOR MAKING AND USING THEM” (THE REGENTS OF THE UNIVERSITY OF CALIFORNIA, priority 2015, published 2018).

Molecules are shown by their SMILES. “And” between values parts separate entries of the source, which are not always exact repeats. Identical values can stand only once. “Also recorded” adds a separate entry of the source. Like-named read-outs stand apart in the source and are kept apart here. Some results are limits rather than exact numbers.

Test [1] has as its target T1, 5HT3A receptors (Mus musculus, UniProt P23979).
T1 construct: expressed in transfected cells; host or cells: HEK293 cells co-expressing TN-XXL
T1 sequence (P23979 24-489): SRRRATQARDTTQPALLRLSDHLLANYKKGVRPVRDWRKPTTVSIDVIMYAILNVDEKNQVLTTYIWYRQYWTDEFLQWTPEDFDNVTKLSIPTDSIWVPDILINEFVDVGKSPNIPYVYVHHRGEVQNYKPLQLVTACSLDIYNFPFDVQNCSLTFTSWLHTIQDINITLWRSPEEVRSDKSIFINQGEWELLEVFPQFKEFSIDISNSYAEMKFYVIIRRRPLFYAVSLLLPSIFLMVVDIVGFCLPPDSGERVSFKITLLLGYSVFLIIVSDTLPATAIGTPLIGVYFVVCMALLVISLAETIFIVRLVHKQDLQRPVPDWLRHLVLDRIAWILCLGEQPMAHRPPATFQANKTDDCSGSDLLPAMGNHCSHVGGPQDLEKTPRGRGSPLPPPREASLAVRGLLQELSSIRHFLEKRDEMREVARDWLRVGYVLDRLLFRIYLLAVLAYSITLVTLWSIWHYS
Briefly: FRET functional assay (agonist/antagonist) using LGIC-CNiFERs. It is filed as cell-based. The settings on record: for EC50: * partial agonist, read-out: Agonist EC50 ± SD, 5HT3A; for Functional properties at 5HT3A receptors (agonist / antagonist, type): functional screening and characterization.

Test [2] addresses α7/5HT3A chimera receptor (hα7/m5HT3A), used for α7-nAChRs (UniProt P23979+P36544, M226I/T225I). The test is described as follows: Intact cell competitive radioligand binding assay ([3H]-(±)-epibatidine, SPA), LGIC-CNiFERs. Conditions: read-out: Kd ± SD, α7-nAChRs; >10 = did not pass initial screen at 10 μM.
For test [3], the system named is physiologically induced amnesia mice. Briefly: ORT time delay with MLA pretreatment (mechanism of action). Format: in vivo. Conditions: MLA 3 mg/kg 5 min before test compound 10 μmol/kg. As to the method: Methyllycaconitine (MLA) was injected to block the α7-nAChR agonist response. The ORT in natural memory loss mice described above was the study model. […] Each mouse was allowed to explore an open field apparatus for 5 min in a habituation phase. After 24 hours, MLA (3 mg/kg) was injected 5 min before injection of test compounds. After 1 h of injected test compounds, each mouse explored 2 identical objects in the sample phase for 5 min. On the next day, one of the objects was changed to a new one and the mouse was allowed to explore these objects for 5 min. The exploration time of these objects was recorded.
FIG. 30 illustrates discrimination index (TN−TF/TN+TF) of each compound in the test phase of ORT for proving mechanism of action.
For dose finding protocol, the mice were randomly divided into different treatment groups, a control group receiving a vehicle and tested groups receiving PNU-282987 at 3, 10 mg/kg, and IND8, QND8 for 10, 25 μmol/kg, single dose. They were allowed to freely explore the open field apparatus for 5 min for habituation in a day before the experiment (day 1). On the test day (day 2), the test compound was injected 1 h before the sample phase. In this phase, mice were placed in the apparatus to explore two identical objects. On the next day (day 3), one object was changed to a new one and mice were allowed to explore these objects for 5 min in the test phase. […] The exploration time of each object was recorded if the nose of mouse came within 3 cm or touched the objects. The discrimination index (DI) was calculated by using (TN−TF)/(TN+TF); TN and TF represented exploration time of new and familiar objects, respectively.

The target in another test is T2, α4β2-nAChRs (Homo sapiens, UniProt P17787+P43681).
T2 construct: expressed in transfected cells; host or cells: HEKtsA201 cells co-expressing TN-XXL
Briefly: Intact cell competitive radioligand binding assay ([3H]-(±)-epibatidine, SPA), LGIC-CNiFERs.

Test [4] addresses T1, 5HT3A receptors. The test is described as follows: Intact cell competitive radioligand binding assay ([3H]-granisetron, SPA), LGIC-CNiFERs. Conditions: >10 = did not pass initial screen at 10 μM; read-out: Kd ± SD, 5HT3A.
The mark [5] stands for this setting: >10 = did not pass initial screen.
Setting [6] is: >10 = did not pass initial screen at 10 μM, read-out: Kd ± SD, α4β2.

In general, EC50 refers to the concentration giving half of the maximal effect. As usually defined, the Kd is the equilibrium constant for the complex coming apart. With `c1cc2cc(-c3cn(C4CN5CCC4CC5)nn3)ccc2[nH]1` (stereo not shown) [IND8, 5-((Quinuclid-3-yl)-1H-1,2,3-triazol-4-yl)-1H-indole], the “5HT3A agonistic properties relative to α7-nAChR agonistic effect” value at 5HT3A receptors [1] is reported as “seven fold lower”. Besides, on 5HT3A receptors [1] (setting [5]), the EC50 came to 210 nM. In addition, the “Functional properties at 5HT3A receptors (agonist / antagonist, type)” value on 5HT3A receptors [1] is “agonistic properties; also recorded: partial agonist”. In addition, the Kd is 120 nM in test [2]; 750 nM on α4β2-nAChRs (setting [6]); 50 nM and 52 nM at 5HT3A receptors [4]. Further, the “Cognitive enhancement after MLA pretreatment, ORT time delay” value (“Cognitive enhancement” below) in test [3] is recorded as “complete abolition of the cognitive enhancement; also recorded: abolished by MLA”. Besides, the “Initial screening for binding to α4β2-nAChRs” value on α4β2-nAChRs (10 μM, more than 50% radioligand displacement) was “binds to α4β2-nAChRs”.

`O=C(N[C@H]1CN2CCC1CC2)c1ccc(Cl)cc1` [PNU-282987, reference compound]: the Kd at 5HT3A receptors [1] (Antagonist KA ± SD, 5HT3A, competitive antagonist (^C), >10 = did not pass initial screen, vs 5-HT) was 1200 nM; in test [2], 270 ± 140 nM; on α4β2-nAChRs, over 10000 nM; on 5HT3A receptors [4], over 10000 nM. In addition, the “Cognitive enhancement” value in test [3] is listed as “abolished by MLA”.

`Oc1ccc(-c2cn(C3CN4CCC3CC4)nn2)cc1` (stereo not shown) [QND8, 3-(4-hydroxyphenyl-1,2,3-triazol-1-yl) quinuclidine]: the EC50 at 5HT3A receptors [1] (setting [5]) was 900 ± 90 nM. Moreover, the “Functional properties at 5HT3A receptors (agonist / antagonist, type)” value at 5HT3A receptors [1] was 5HT3A receptor agonist properties. Besides, the dissociation constant Kd is 80 nM and 81 nM in test [2]; over 10000 nM on α4β2-nAChRs (setting [6]); 540 ± 50 nM on 5HT3A receptors [4]. Moreover, in test [3], the “Cognitive enhancement” value was “complete abolition of the cognitive enhancement; also recorded: abolished by MLA”.
